The target in this assay is T1, human recombinant HDAC6 (Homo sapiens, UniProt Q9UBN7).
T1 construct: purchased Calbiochem 382180
T1 sequence (Q9UBN7 1-1215): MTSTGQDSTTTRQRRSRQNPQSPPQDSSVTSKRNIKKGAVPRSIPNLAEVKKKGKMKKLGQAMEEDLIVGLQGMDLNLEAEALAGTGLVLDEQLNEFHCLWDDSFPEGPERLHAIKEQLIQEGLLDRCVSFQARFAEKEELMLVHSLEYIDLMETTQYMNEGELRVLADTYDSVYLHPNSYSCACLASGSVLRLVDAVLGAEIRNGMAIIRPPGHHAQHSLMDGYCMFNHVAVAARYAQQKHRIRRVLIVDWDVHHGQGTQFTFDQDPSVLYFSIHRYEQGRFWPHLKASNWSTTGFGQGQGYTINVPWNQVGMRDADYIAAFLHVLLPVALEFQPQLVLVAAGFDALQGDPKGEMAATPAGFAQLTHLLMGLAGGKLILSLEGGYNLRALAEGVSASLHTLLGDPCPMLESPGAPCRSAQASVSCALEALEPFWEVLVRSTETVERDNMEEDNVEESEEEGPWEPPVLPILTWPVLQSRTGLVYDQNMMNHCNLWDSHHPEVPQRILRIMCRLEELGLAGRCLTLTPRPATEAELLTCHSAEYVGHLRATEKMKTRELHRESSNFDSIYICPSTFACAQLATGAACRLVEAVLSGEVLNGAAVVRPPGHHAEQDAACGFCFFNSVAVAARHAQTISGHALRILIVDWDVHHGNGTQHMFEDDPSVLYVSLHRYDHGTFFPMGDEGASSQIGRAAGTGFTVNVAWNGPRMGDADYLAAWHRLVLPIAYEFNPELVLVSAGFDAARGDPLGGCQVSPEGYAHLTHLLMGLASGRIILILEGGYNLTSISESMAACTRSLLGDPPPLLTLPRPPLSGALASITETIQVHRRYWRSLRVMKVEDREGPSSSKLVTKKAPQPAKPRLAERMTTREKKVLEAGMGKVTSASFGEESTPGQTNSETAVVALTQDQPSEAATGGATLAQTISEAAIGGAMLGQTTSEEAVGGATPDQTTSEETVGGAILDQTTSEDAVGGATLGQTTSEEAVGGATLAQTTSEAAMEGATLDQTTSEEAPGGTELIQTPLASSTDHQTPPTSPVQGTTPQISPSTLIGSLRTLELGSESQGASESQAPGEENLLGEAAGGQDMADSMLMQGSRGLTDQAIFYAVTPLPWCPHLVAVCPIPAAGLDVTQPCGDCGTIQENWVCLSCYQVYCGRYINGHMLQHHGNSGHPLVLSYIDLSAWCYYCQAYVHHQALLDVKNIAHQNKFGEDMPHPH
Put plainly: HDAC6 enzyme activity inhibition assay (HDAC Fluorimetric Drug Discovery Kit). The format is biochemical. The note with it: for HDAC6 selectivity (fold): HDAC6 over HDAC1; for IC50: human recombinant HDAC6, same protocol as HDAC1, read-out: HDAC6. Put shortly:
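Fluorimetric deacetylase assay: 5-fold serial compound dilutions, 0.3 μg recombinant human enzyme (HDAC1 or HDAC6, same protocol), 10 μM Fluor de Lys-SIRT1 substrate, 60 min at 30 °C. Signal developed 30 min, measured at 360/460 nm; IC50 values derived.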

Each structure is given as a SMILES string.

Results on 18 compounds are retold here after patent US10717716B2, “1,3,4-oxadiazole derivative compounds as histone deacetylase 6 inhibitor, and the pharmaceutical composition comprising the same” (Chong Kun Dang Pharmaceutical Corp., priority 2015, dated 2020).

Consider `O=C(N1CCS(=O)(=O)CC1)N(Cc1ccc(-c2nnc(C(F)F)o2)cc1F)c1ccc(OC(F)(F)F)cc1` [Compound 21514, N-(4-(5-(difluoromethyl)-1,3,4-oxadiazol-2-yl)-2-fluorobenzyl)-N-(4-(trifluoromethoxy)phenyl)thiomorpholine-4-carboxamide 1,1-dioxide], for which the “HDAC6 selectivity (fold)” value is recorded as 286 fold and the IC50 amounted to 35 nM.
For `CN1CCN(Cc2ccc(N(Cc3ccc(-c4nnc(C(F)(F)F)o4)cc3F)C(=O)N3CCS(=O)(=O)CC3)cc2)CC1` [Compound 21515, N-(2-fluoro-4-(5-(trifluoromethyl)-1,3,4-oxadiazol-2-yl)benzyl)-N-(4-((4-methylpiperazin-1-yl)methyl)phenyl)thiomorpholine-4-carboxamide 1,1-dioxide], the “HDAC6 selectivity (fold)” value is 115 fold and the IC50 turned out to be 87 nM.
As for `CN1CCN(Cc2ccc(N(Cc3ccc(-c4nnc(C(F)F)o4)cc3F)C(=O)N3CCS(=O)(=O)CC3)cc2)CC1` [Compound 21516, N-(4-(5-(difluoromethyl)-1,3,4-oxadiazol-2-yl)-2-fluorobenzyl)-N-(4-((4-methylpiperazin-1-yl)methyl)phenyl)thiomorpholine-4-carboxamide 1,1-dioxide], the “HDAC6 selectivity (fold)” value amounted to 250 fold and the IC50 is 40 nM.
In the case of `O=C(N1CCS(=O)(=O)CC1)N(Cc1ccc(-c2nnc(C(F)F)o2)cc1F)c1ccc(-c2cccnc2)cc1` [Compound 21518, N-(4-(5-(difluoromethyl)-1,3,4-oxadiazol-2-yl)-2-fluorobenzyl)-N-(4-(pyridin-3-yl)phenyl)thiomorpholine-4-carboxamide 1,1-dioxide], the “HDAC6 selectivity (fold)” value is on record as 400 fold and the IC50 turned out to be 25 nM.
The like results for `O=C(N1CCS(=O)(=O)CC1)N(Cc1ccc(-c2nnc(C(F)F)o2)cc1F)c1ccc(-c2ccncc2)cc1` [Compound 21520, N-(4-(5-(difluoromethyl)-1,3,4-oxadiazol-2-yl)-2-fluorobenzyl)-N-(4-(pyridin-4-yl)phenyl)thiomorpholine-4-carboxamide 1,1-dioxide] were, in that order, 159 fold and 63 nM.
In the same order, the values of `Cn1ccc2cc(-c3ccc(N(Cc4ccc(-c5nnc(C(F)(F)F)o5)cc4F)C(=O)N4CCS(=O)(=O)CC4)cc3)ccc21` [Compound 21521, N-(2-fluoro-4-(5-(trifluoromethyl)-1,3,4-oxadiazol-2-yl)benzyl)-N-(4-(1-methyl-1H-indol-5-yl)phenyl)thiomorpholine-4-carboxamide 1,1-dioxide] are 18 fold and 565 nM.
`O=C(N1CC2(COC2)C1)N(Cc1ccc(-c2nnc(C(F)F)o2)cc1F)c1ccccc1` [Compound 21522, N-(4-(5-(difluoromethyl)-1,3,4-oxadiazol-2-yl)-2-fluorobenzyl)-N-phenyl-2-oxa-6-azaspiro[3.3]heptane-6-carboxamide]: the “HDAC6 selectivity (fold)” value turned out to be 455 fold and the IC50 worked out at 22 nM.
In the case of `CN1CCN(C(=O)N(Cc2ccc(-c3nnc(C(F)F)o3)cn2)c2ccccc2)CC1` [Compound 21527, N-((5-(5-(difluoromethyl)-1,3,4-oxadiazol-2-yl)pyridin-2-yl)methyl)-4-methyl-N-phenylpiperazine-1-carboxamide], the “HDAC6 selectivity (fold)” value is 357 fold and the IC50 is 28 nM.
For `O=C(N1CCS(=O)(=O)CC1)N(Cc1ccc(-c2nnc(C(F)(F)F)o2)cc1F)c1cccc(OC(F)(F)F)c1` [Compound 21528, N-(2-fluoro-4-(5-(trifluoromethyl)-1,3,4-oxadiazol-2-yl)benzyl)-N-(3-(trifluoromethoxy)phenyl)thiomorpholine-4-carboxamide 1,1-dioxide], the “HDAC6 selectivity (fold)” value came out at 47 fold and the IC50 was 214 nM.
The like results for `O=C(N1CCS(=O)(=O)CC1)N(Cc1ccc(-c2nnc(C(F)F)o2)cc1F)c1cccc(OC(F)(F)F)c1` [Compound 21529, N-(4-(5-(difluoromethyl)-1,3,4-oxadiazol-2-yl)-2-fluorobenzyl)-N-(3-(trifluoromethoxy)phenyl)thiomorpholine-4-carboxamide 1,1-dioxide] were, in that order, 278 fold and 36 nM.
Consider `O=C(N1CCS(=O)(=O)CC1)N(Cc1ccc(-c2nnc(C(F)(F)F)o2)cc1F)c1ccc(F)c(Cl)c1` [Compound 21530, N-(3-chloro-4-fluorophenyl)-N-(2-fluoro-4-(5-(trifluoromethyl)-1,3,4-oxadiazol-2-yl)benzyl)thiomorpholine-4-carboxamide 1,1-dioxide], for which the “HDAC6 selectivity (fold)” value was 167 fold and the IC50 came to 60 nM.
As for `O=C(N1CCS(=O)(=O)CC1)N(Cc1ccc(-c2nnc(C(F)F)o2)cc1F)c1ccc(F)c(Cl)c1` [Compound 21531, N-(3-chloro-4-fluorophenyl)-N-(4-(5-(difluoromethyl)-1,3,4-oxadiazol-2-yl)-2-fluorobenzyl)thiomorpholine-4-carboxamide 1,1-dioxide], the “HDAC6 selectivity (fold)” value is reported as 769 fold and the IC50 worked out at 13 nM.
The like results for `O=C(N1CCOCC1)N(Cc1ncc(-c2nnc(C(F)F)o2)cn1)c1ccccc1` [Compound 21532, N-((5-(5-(difluoromethyl)-1,3,4-oxadiazol-2-yl)pyrimidin-2-yl)methyl)-N-phenylmorpholine-4-carboxamide] were, in that order, 208 fold and 48 nM.
Regarding `CN1CCN(C(=O)N(Cc2ccc(-c3nnc(C(F)F)o3)cc2F)c2cccc(-c3ccccc3)c2)CC1` [Compound 21533, N-([1,1′-biphenyl]-3-yl)-N-(4-(5-(difluoromethyl)-1,3,4-oxadiazol-2-yl)-2-fluorobenzyl)-4-methylpiperazine-1-carboxamide], the “HDAC6 selectivity (fold)” value was determined as 70 fold and the IC50 is 143 nM.
For `CN1CCN(C(=O)N(Cc2ccc(-c3nnc(C(F)F)o3)cc2F)c2cccc(-c3ccoc3)c2)CC1` [Compound 21534, N-(4-(5-(difluoromethyl)-1,3,4-oxadiazol-2-yl)-2-fluorobenzyl)-N-(3-(furan-3-yl)phenyl)-4-methylpiperazine-1-carboxamide], the “HDAC6 selectivity (fold)” value is given as 175 fold and the IC50 worked out at 57 nM.
The like results for `CN1CCN(C(=O)N(Cc2ccc(-c3nnc(C(F)F)o3)cc2F)c2cccc(-c3ccncc3)c2)CC1` [Compound 21535, N-(4-(5-(difluoromethyl)-1,3,4-oxadiazol-2-yl)-2-fluorobenzyl)-4-methyl-N-(3-(pyridin-4-yl)phenyl)piperazine-1-carboxamide] were, in that order, 227 fold and 44 nM.
Take `CN1CCN(C(=O)N(Cc2ccc(-c3nnc(C(F)F)o3)cc2F)c2cccc(-c3cccnc3)c2)CC1` [Compound 21536, N-(4-(5-(difluoromethyl)-1,3,4-oxadiazol-2-yl)-2-fluorobenzyl)-4-methyl-N-(3-(pyridin-3-yl)phenyl)piperazine-1-carboxamide]: the “HDAC6 selectivity (fold)” value is given as 556 fold and the IC50 came to 18 nM.
In the case of `CN1CCN(C(=O)N(Cc2ccc(-c3nnc(C(F)F)o3)cc2F)c2cccc(-c3ccc4c(cnn4C)c3)c2)CC1` [Compound 21537, N-(4-(5-(difluoromethyl)-1,3,4-oxadiazol-2-yl)-2-fluorobenzyl)-4-methyl-N-(3-(1-methyl-1H-indazol-5-yl)phenyl)piperazine-1-carboxamide], the “HDAC6 selectivity (fold)” value stood at 145 fold and the IC50 was 69 nM.
